The record followed here is patent publication EP0624593A2, “Bile acid derivates, a method for their production and their use as medicines” (HOECHST AKTIENGESELLSCHAFT, priority 1993, dated 1994).

The assay addresses T1, Na⁺-abhängiges Gallensäuretransportsystem (Bürstensaummembranvesikel des Ileums) (Oryctolagus cuniculus, UniProt Q28727).
T1 construct: Präparation von Bürstensaummembranvesikeln aus dem Ileum von Kaninchen; from tissue; host or cells: Brush border membrane vesicles from the terminal ileum of male New Zealand rabbits (Mg2+ precipitation method)
T1 sequence (Q28727 1-347): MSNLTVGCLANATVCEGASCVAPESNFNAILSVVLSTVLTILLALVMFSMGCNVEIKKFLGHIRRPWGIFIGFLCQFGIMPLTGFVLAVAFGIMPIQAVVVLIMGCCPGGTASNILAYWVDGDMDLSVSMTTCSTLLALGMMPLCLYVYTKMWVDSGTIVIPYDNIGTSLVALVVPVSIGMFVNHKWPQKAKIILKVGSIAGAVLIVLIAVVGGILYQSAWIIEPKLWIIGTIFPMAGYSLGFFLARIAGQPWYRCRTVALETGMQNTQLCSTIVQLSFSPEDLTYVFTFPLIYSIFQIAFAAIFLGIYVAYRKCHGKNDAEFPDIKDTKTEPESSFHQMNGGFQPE
As to the kind of experiment: Inhibition of [³H]-taurocholate uptake into brush border membrane vesicles of rabbit ileum (membrane filtration technique). The class given is biochemical, Kaninchen. The conditions noted are these: 50 µM Taurocholat; for IC50Na-TCDC[µmol] / IC50Na-Substanz[µmol]: quotient of IC50Na of reference Taurochenodesoxycholat (TCDC) and IC50Na of test substance, Na⁺-dependent transport part (difference Na-T-P minus K-T-P); for IC50-TCDC[µmol] / IC50-Substanz[µmol]: quotient of IC50 of reference Taurochenodesoxycholat (TCDC) and IC50 of test substance, [³H]-Taurocholat uptake, usually 1 min incubation. The text has this: Die biologische Prüfung der erfindungsgemäßen Verbindungen erfolgte durch Ermittlung der Hemmung der [³H]-Taurocholataufnahme in Bürstensaummembranvesikel des Ileums von Kaninchen. Der Hemmtest wurde wie folgt durchgeführt:
1. Präparation von Bürstensaummembranvesikeln aus dem Ileum von Kaninchen
Die Präparation von Bürstensaummembranvisikeln aus den Darmzellen des Dünndarm erfolgte mit der sogenannten Mg²⁺-Präzipitationsmethode. Männliche Neuseeland-Kaninchen (2 bis 2,5 kg Körpergewicht) wurden durch intravenöse Injektion von 0,5 ml einer wäßrigen Lösung von 2,5 mg Tetracain HCl, 100 T 61^R und 25 mg Mebezoniumjodid getötet. Der Dünndarm wurde entnommen und mit eiskalter physiologischer Kochsalzlösung gespült. Die terminalen 7/10 des Dünndarms (gemessen in oral rectaler Richtung, d. h. das terminale Ileum, welches das aktive Na⁺-abhängige Gallensäuretransportsystem enthält) wurden zur Präparation der Bürstensaummembranvesikel verwendet. Die Därme wurden in Kunststoffbeuteln unter Stickstoff bei -80°C eingefroren. Zur Präparation der Membranvesikel wurden die eingefrorenen Därme bei 30°C im Wasserbad aufgetaut. Die Mucosa wurde abgeschabt und in 60 ml eiskaltem 12 mM Tris/HCl-Puffer (pH 7,1)/300 mM Mannit, 5 mM EGTA/10 mg/l Phenylmethylsulfonylfluorid/1 mg/l Trypsin Inhibitor v. Sojabohnen (32 U/mg)/0,5 mg/l Trypsin Inhibitor v. Rinderlunge (193 U/mg)15 mg/l Bacitracin suspendiert. Nach dem Verdünnen auf 300 ml mit eiskaltem destilliertem Wasser wurde mit einem Ultraturrax (18-Stab, IKA Werk Staufen, BRD) 3 Minuten bei 75 % max. Leistung unter Eiskühlung homogenisiert. Nach Zugabe von 3 ml 1 M MgCl₂-Lösung (Endkonzentration 10 mM) ließ man exakt 1 Minute bei 0°C stehen. Durch Zugabe von Mg²⁺ aggregieren die Zellmembranen und präzipitieren mit Ausnahme der Bürstensaummembranen. Nach einer 15-minütigen Zentrifugation bei 3000 x g (5000 rpm, SS-34-Rotor) wurde der Niederschlag verworfen und der Überstand, der die Bürstensaummembranen enthält, 30 Minuten bei […] (15000 rpm, SS-34-Rotor) zentrifugiert. Der Überstand wurde verworfen, der Niederschlag in 60 ml 12 mM Tris/HCl-Puffer (pH 7,1)/60 mM Mannit, 5 mM EGTA mit einem Potter Elvejhem Homogenisator (Braun, Melsungen, 900 rpm, 10 Hübe) rehomogenisiert. Nach Zugabe von 0,1 ml 1 M MgCl₂-Lösung und 15-minütiger Inkubationszeit bei 0°C wurde erneut 15 Minuten bei 3000 x g zentrifugiert. Der Überstand wurde anschließend nochmals 30 Minuten bei 46000 x g (15000 rpm, SS-34-Rotor) zentrifugiert. Der Niederschlag wurde in 30 ml 10 mM Tris/Hepes-Puffer (pH 7,4)/300 mM Mannit aufgenommen und durch 20 Hübe in einem Potter Elvejhem Homogenisator bei 1000 rpm homogen resuspendiert. Nach 30 minütiger Zentrifugation bei 48000 x g (20000 rpm, SS-34-Rotor) wurde der Niederschlag in 0,5 bis 2 ml Tris/Hepes-Puffer (pH 7,4)/280 mM Mannit (Endkonzentration 20 mg/ml) aufgenommen und mit Hilfe einer Tuberkulinspritze mit einer 27 Gauge-Nadel resuspendiert. Die Vesikel wurden entweder unmittelbar nach der Präparation für Transportuntersuchungen verwendet oder bei -196°C in 4 mg Portionen in flüssigem Stickstoff aufbewahrt.
2. Hemmung der Na⁺-abhängigen [³H]Taurocholat-Aufnahme in Bürstensaummembranvesikel des Ileums
Die Aufnahme von Substraten in die vorstehend beschriebenen Bürstensaummembranvesikel wurde mittels der sogenannten Membranfiltrationstechnik bestimmt. 10 µl der Vesikelsuspension (100 µg Protein) wurden als Tropfen an die Wand eines Polystyrolinkubationsröhrchens (11 x 70 mm) pipettiert, welches das Inkubationsmedium mit den entsprechenden Liganden enthielt (90 µl). Das Inkubationsmedium enthielt 0,75 µl = 0,75 µCi [³H(G)]-Taurocholat (spezifische Aktivität: 2,1 Ci/mMol) /0,5 µl 10 mM Taurocholat/8,75 µl Natrium-Transport-Puffer (10 mM Tris/Hepes, (pH 7,4)/100 mM Mannit/100 mM NaCl) (Na-T-P) bzw. 8,75 µl Kalium-Transport-Puffer (10 mM Tris/Hepes (pH 7,4)/100 mM Mannit/100 mM KCl) (K-T-P) und 80 µl der betreffenden Inhibitorlösung, je nach Experiment in Na-T-Puffer bzw. K-T-Puffer gelöst. […]

As for `C[C@H](CCC(=O)NCCCNC(=O)CCC(=O)NCCO[C@@H]1C[C@@H]2C[C@H](O)CC[C@]2(C)[C@H]2C[C@H](O)[C@]3(C)[C@@H]([C@H](C)CCC(=O)O)CC[C@H]3[C@H]12)[C@H]1CC[C@H]2[C@@H]3[C@H](O)C[C@@H]4C[C@H](O)CC[C@]4(C)[C@H]3C[C@H](O)[C@]12C` [Beispiel 32], the “IC50Na-TCDC[µmol] / IC50Na-Substanz[µmol]” value is listed as 0,80 and the “IC50-TCDC[µmol] / IC50-Substanz[µmol]” value was 1,00.
As to `C[C@H](CCC(=O)NCCO[C@@H]1C[C@@H]2C[C@H](O)CC[C@]2(C)[C@H]2C[C@H](O)[C@]3(C)[C@@H]([C@H](C)CCC(=O)O)CC[C@H]3[C@H]12)[C@H]1CC[C@H]2[C@@H]3[C@H](O)C[C@@H]4C[C@H](O)CC[C@]4(C)[C@H]3C[C@H](O)[C@]12C` [Beispiel 30], the “IC50Na-TCDC[µmol] / IC50Na-Substanz[µmol]” value is reported as 0,85 and the “IC50-TCDC[µmol] / IC50-Substanz[µmol]” value is given as 0,93.
Regarding `C[C@H](CCC(=O)N[C@H]1C[C@@H]2C[C@H](O)CC[C@]2(C)[C@H]2C[C@H](O)[C@]3(C)[C@@H]([C@H](C)CCC(=O)NCCS(=O)(=O)O)CC[C@H]3[C@H]12)[C@H]1CC[C@H]2[C@@H]3[C@H](O)C[C@@H]4C[C@H](O)CC[C@]4(C)[C@H]3CC[C@]12C` [Beispiel 40], the “IC50Na-TCDC[µmol] / IC50Na-Substanz[µmol]” value is listed as 0,52 and the “IC50-TCDC[µmol] / IC50-Substanz[µmol]” value is recorded as 0,54.
The corresponding values for `C[C@H](CCC(=O)N[C@H]1C[C@@H]2C[C@H](O)CC[C@]2(C)[C@H]2C[C@H](O)[C@]3(C)[C@@H]([C@H](C)CCC(=O)O)CC[C@H]3[C@H]12)[C@H]1CC[C@H]2[C@@H]3CC[C@@H]4C[C@H](O)CC[C@]4(C)[C@H]3CC[C@]12C` [Beispiel 29] are 0,17 and 0,23.
With `C[C@H](CCC(=O)N[C@H]1C[C@@H]2C[C@H](O)CC[C@]2(C)[C@H]2C[C@H](O)[C@]3(C)[C@@H]([C@H](C)CCC(=O)O)CC[C@H]3[C@H]12)[C@H]1CC[C@H]2[C@@H]3[C@H](O)C[C@@H]4C[C@H](O)CC[C@]4(C)[C@H]3C[C@H](O)[C@]12C` [Beispiel 26], the “IC50Na-TCDC[µmol] / IC50Na-Substanz[µmol]” value was 0,29.
Still for that read-out and setting: under `COC(=O)CC[C@@H](C)[C@H]1CC[C@H]2[C@@H]3[C@H](OCCNC(=O)CCC(=O)NCCCNC(=O)CC[C@@H](C)[C@H]4CC[C@H]5[C@@H]6[C@H](O)C[C@@H]7C[C@H](OC(c8ccccc8)c8ccccc8)CC[C@]7(C)[C@H]6C[C@H](O)[C@]45C)C[C@@H]4C[C@H](OC(C)=O)CC[C@]4(C)[C@H]3C[C@H](O)[C@]12C` [Beispiel 20] stands 0,12.
`C[C@H](CCC(=O)N[C@H]1C[C@@H]2C[C@H](O)CC[C@]2(C)[C@H]2C[C@H](O)[C@]3(C)[C@@H]([C@H](C)CCC(=O)O)CC[C@H]3[C@H]12)[C@H]1CC[C@H]2[C@@H]3[C@H](O)C[C@@H]4C[C@H](O)CC[C@]4(C)[C@H]3CC[C@]12C` [Beispiel 27]: the “IC50Na-TCDC[µmol] / IC50Na-Substanz[µmol]” value was 0,44 and the “IC50-TCDC[µmol] / IC50-Substanz[µmol]” value is on record as 0,64.
The corresponding values for `C[C@H](CCC(=O)N[C@H]1C[C@@H]2C[C@H](O)CC[C@]2(C)[C@H]2C[C@H](O)[C@]3(C)[C@@H]([C@H](C)CCC(=O)NCCS(=O)(=O)O)CC[C@H]3[C@H]12)[C@H]1CC[C@H]2[C@@H]3[C@H](O)C[C@@H]4C[C@H](O)CC[C@]4(C)[C@H]3C[C@H](O)[C@]12C` [Beispiel 39] are 1,05 and 0,92.
On the same counts, the results for `C[C@H](CCC(=O)NCCO[C@@H]1C[C@@H]2C[C@H](O)CC[C@]2(C)[C@H]2C[C@H](O)[C@]3(C)[C@@H]([C@H](C)CCC(=O)NCCS(=O)(=O)O)CC[C@H]3[C@H]12)[C@H]1CC[C@H]2[C@@H]3[C@H](O)C[C@@H]4C[C@H](O)CC[C@]4(C)[C@H]3C[C@H](O)[C@]12C` [Beispiel 43] are 0,96 and 1,18.
The corresponding values for `C[C@H](CCC(=O)N[C@H]1C[C@@H]2C[C@H](O)CC[C@]2(C)[C@H]2C[C@H](O)[C@]3(C)[C@@H]([C@H](C)CCC(=O)O)CC[C@H]3[C@H]12)[C@H]1CC[C@H]2[C@@H]3[C@@H](O)C[C@@H]4C[C@H](O)CC[C@]4(C)[C@H]3CC[C@]12C` [Beispiel 28] are 0,43 and 0,54.
